This is an account of results in patent publication US11203602B2, “Thioester prodrugs of macrocycles as inhibitors of histone deacetylases” (OnKure, Inc., priority 2016, dated 2021).

The nature of data set [1]: Aqueous solubility at two pH levels. The class given is physicochemical. Particulars: aqueous solution.
A further data set relates to HDAC. The conditions noted are these: cells treated with compound; Ying et al. 2008a; read-out: IC50 HDAC inhibition; cited from earlier work.
The test system of the next data set is HCT116 cells. Particulars: Ying et al. 2008b; cited from earlier work.
The subject of another data set is melanoma cell lines. Particulars: series of melanoma cell lines; Bowers et al. 2008; cited from earlier work.
Another data set in a line: Rat PK (p.o.). The class given is in vivo. The conditions noted are these: plasma, po.
The subject of another data set is MDA-MB231. The conditions noted are these: Taori et al. 2008; cited from earlier work.
A further data set deals with HCT 116 cells. Particulars: Zeng et al. 2010; cited from earlier work.
The test system of a further data set is HEK293. Particulars: HEK293 normal cell line; Zeng et al. 2010; cited from earlier work.
The test system of a further data set is HLF cells. Particulars: HLF normal cell line; Zeng et al. 2010; cited from earlier work.
The subject of data set [2] is HDAC proteins from class I and class II. The conditions noted are these: purified full length HDAC proteins; Bowers et al. 2008; cited from earlier work.
Setting [3] is: 10 mg/kg, Vehicle (0.02N HCl sol.).
Setting [4] is: 15 mg/kg, Vehicle (0.1N citrate buffer).

Values after ≈ are worked out from the molar mass of the structure shown. Counter-ions that a name gives are not always drawn.

With `CC(C)[C@@H]1NC(=O)C(C)(C)NC(=O)c2csc(n2)CNC(=O)C[C@@H](/C=C/CCSC(=O)[C@@H](C)N)OC1=O` [Example 5, (R)—S-((E)-4-((7S,10S)-7-isopropyl-4,4-dimethyl-2,5,8,12-tetraoxo-9-oxa-16-thia-3,6,13,18-tetraazabicyclo[13.2.1]octadeca-1(17),15(18)-dien-10-yl)but-3-en-1-yl) 2-aminopropanethioate Oxalate], the solubility (as a rule, the concentration that dissolves in the medium under given conditions) in data set [1] (pH 3, aqueous buffer) came to 45.5 mg/mL; in data set [1] (pH 6, aqueous buffer), 41.8 mg/mL.
For `CC(C)[C@@H]1NC(=O)[C@]2(C)CSC(=N2)c2csc(n2)CNC(=O)C[C@@H](/C=C/CCS)OC1=O` [largazole thiol], the IC50 (commonly the concentration that gives 50% inhibition) in the data set on HDAC is 209 nM; in the data set on melanoma cell lines it was 380 to 2600 nM. The GI50 (commonly the concentration that inhibits growth by half) with HCT116 cells is 38 nM.
Take `CC(C)[C@@H]1NC(=O)C(C)(C)NC(=O)c2csc(n2)CNC(=O)C[C@@H](/C=C/CCSC(=O)[C@H](C)N)OC1=O` [Example 4, (S)—S-((E)-4-((7S,10S)-7-isopropyl-4,4-dimethyl-2,5,8,12-tetraoxo-9-oxa-16-thia-3,6,13,18-tetraazabicyclo[13.2.1]octadeca-1(17),15(18)-dien-10-yl)but-3-en-1-yl) 2-aminopropanethioate Oxalate]: in data set [1] (pH 3, aqueous buffer), the solubility was determined as 15.4 mg/mL. The compound also came in with a solubility in data set [1] (pH 6, aqueous buffer) of 25.2 mg/mL. Further, in “Rat PK (p.o.)” (setting [3]), the AUC(0-inf) (usually total exposure, with the tail of the curve extrapolated) is 176 ng·h/mL; the Cmax (usually the highest concentration seen after dosing) was found to be 51 ng/mL; the Tmax (usually the time at which the peak concentration occurs) stood at 1 h; the half-life (as a rule, how long it takes for the measured level to halve) was 6.09 h.
Consider `CC(C)[C@@H]1NC(=O)C(C)(C)NC(=O)c2csc(n2)CNC(=O)C[C@@H](/C=C/CCSC(=O)CN(C)C)OC1=O` [Example 6, S-((E)-4-((7S,10S)-7-isopropyl-4,4-dimethyl-2,5,8,12-tetraoxo-9-oxa-16-thia-3,6,13,18-tetraazabicyclo[13.2.1]octadeca-1(17),15(18)-dien-10-yl)but-3-en-1-yl) 2-(dimethylamino)ethanethioate], for which, in data set [1] (pH 3, aqueous buffer), the concentration in solution (solubility) came to 2.45 mg/mL (≈ 4.32 mM). The solubility in data set [1] (pH 6, aqueous buffer) is 2.32 mg/mL (≈ 4.09 mM). In addition, in the data set “Rat PK (p.o.)” (setting [3]), the AUC(0-inf) came to 272 ng·h/mL, the concentration peaked (Cmax) at 107 ng/mL, the Tmax worked out at 0.83 h and the half-life was 5.86 h.
As to `CCCCCCCC(=O)SCC/C=C/[C@@H]1CC(=O)NCc2nc(cs2)C2=N[C@@](C)(CS2)C(=O)N[C@@H](C(C)C)C(=O)O1` [largazole, Largazole], the GI50 in the data set with MDA-MB231 is 7.7 nM; in the data set with HCT116 cells it was 44 nM; in the data set on HCT 116 cells, 80 nM; in the data set on HEK293, 1360 nM; in the data set with HLF cells, 980 nM. For the same compound, the IC50 in the data set on HDAC is 51 nM; with melanoma cell lines, 45 to 315 nM. Moreover, the “HDAC inhibition in vitro compared to the thiol” value in [2] is listed as “much weaker HDAC inhibitor”. Moreover, in data set [2], the “preference for HDACs 1, 2, and 3 over HDAC6” value was “pronounced preference”.
In turn, `CC(C)[C@H](N)C(=O)SCC/C=C/[C@@H]1CC(=O)NCc2nc(cs2)C(=O)NC(C)(C)C(=O)N[C@@H](C(C)C)C(=O)O1.O=S(=O)(O)c1ccccc1` [Example 3, (S)—S-((E)-4-((7S,10S)-7-isopropyl-4,4-dimethyl-2,5,8,12-tetraoxo-9-oxa-16-thia-3,6,13,18-tetraazabicyclo[13.2.1]octadeca-1(17),15(18)-dien-10-yl)but-3-en-1-yl) 2-amino-3-methylbutanethioate Benzenesulfonate] yielded a solubility in data set [1] (pH 3, aqueous buffer) of 7.5 mg/mL. Moreover, in the data set “Rat PK (p.o.)” (setting [4]), the AUC(0-inf) was found to be 583 ng·h/mL, the peak level (Cmax) was 253 ng/mL, the Tmax is 0.6 h and the half-life was 12.4 h.
Consider `CC(C)[C@@H]1NC(=O)C(C)(C)NC(=O)c2csc(n2)CNC(=O)C[C@@H](/C=C/CCSC(=O)[C@H](N)C(C)C)OC1=O.Cl` [Example 1, (R)—S-((E)-4-((7S,10S)-7-isopropyl-4,4-dimethyl-2,5,8,12-tetraoxo-9-oxa-16-thia-3,6,13,18-tetraazabicyclo[13.2.1]octadeca-1(17),15(18)-dien-10-yl)but-3-en-1-yl) 2-amino-3-methylbutanethioate Hydrochloride], for which, in [1] (pH 3, aqueous buffer), the solubility was 8.67 mg/mL. For the same compound, in data set [1] (pH 6, aqueous buffer), the solubility was 10.5 mg/mL. Also, in the data set “Rat PK (p.o.)” (setting [3]), the total exposure AUC(0-inf) amounted to 257 ng·h/mL, the Cmax was found to be 86 ng/mL, the Tmax was 0.42 h and the half-life was 8.53 h.
In data set [1] (pH 3, aqueous buffer), `CC(C)[C@H](N)C(=O)SCC/C=C/[C@@H]1CC(=O)NCc2nc(cs2)C(=O)NC(C)(C)C(=O)N[C@@H](C(C)C)C(=O)O1.Cl` [Example 2, (S)—S-((E)-4-((7S,10S)-7-isopropyl-4,4-dimethyl-2,5,8,12-tetraoxo-9-oxa-16-thia-3,6,13,18-tetraazabicyclo[13.2.1]octadeca-1(17),15(18)-dien-10-yl)but-3-en-1-yl) 2-amino-3-methylbutanethioate Hydrochloride] gave a solubility of 12.3 mg/mL. Besides, the solubility in data set [1] (pH 6, aqueous buffer) was 18 mg/mL. Besides, in the data set “Rat PK (p.o.)” (setting [3]), the AUC(0-inf) is 267 ng·h/mL, the Cmax came to 123 ng/mL, the Tmax was determined as 0.48 h and the half-life is 8.23 h.
With `CC(C)[C@@H]1NC(=O)C(C)(C)NC(=O)c2csc(n2)CNC(=O)C[C@@H](/C=C/CCSC(=O)c2cccnc2)OC1=O` [Example 7, S-((E)-4-((7S,10S,Z)-7-isopropyl-4,4-dimethyl-2,5,8,12-tetraoxo-9-oxa-3,6,13-triaza-1(4,2)-thiazolacyclotetradecaphane-10-yl)but-3-en-1-yl) pyridine-3-carbothioate], in “Rat PK (p.o.)” (setting [3]), the AUC(0-inf) was found to be 240 ng·h/mL, the Cmax turned out to be 150 ng/mL, the time of peak concentration (Tmax) was found to be 0.33 h and the half-life was 6.88 h.
